Measured values published in patent publication US20070116781A1, “Hydrogen Cyanamide Pesticide Formulations” (priority 2005, published 2007).

Key:
Assay in all cases: Herbicidal activity, cyanamide and citric acid, pre-emergence, covered pots
[1] = system: yellow nutsedge; assay type: in vivo, Cyperus esculentus
Method: (§1) The weeds used in these tests were grown from a standard weed seed pack of common annual and perennial weeds representing an extreme weed situation. The weeds included crabgrass (Digitaria sanguinalis), yellow nutsedge (Cyperus esculentus), […] (Ipomoea spp.), pigweed (Amaranthus spp.), and other annual weeds. Observations of the effects on the weed population as a whole were made, and individual observations were made for crabgrass, yellow nutsedge, sicklepod, morningglory, and pigweed. Stock solutions of hydrogen cyanamide at 1.25% by weight and citric acid at 5.0% by weight, both in water, were prepared, the hydrogen cyanamide from a phosphate-buffered 50% aqueous solution. […] Data analyses were performed in the same manner as Example 1. The results expressed in weeds per pot are listed in Table XIV for all weeds, Table XV for crabgrass, Table XVI for yellow nutsedge, Table XVII for sicklepod, Table XVIII for morningglory, and Table XIX for pigweed, all at various application rates for hydrogen cyanamide, with and without citric acid.

[2] = system: combined weed species; assay type: in vivo
Method: as §1

[3] = system: crabgrass; assay type: in vivo, Digitaria sanguinalis
Method: as §1

[4] = 13 d after treatment, cyanamide 50 mg/kg soil
[5] = 13 d after treatment, cyanamide 100 mg/kg soil
[6] = 13 d after treatment, cyanamide 150 mg/kg soil
[7] = 13 d after treatment, cyanamide 200 mg/kg soil
[8] = 13 d after treatment, cyanamide 250 mg/kg soil
[9] = 19 d after treatment, cyanamide 50 mg/kg soil
[10] = 19 d after treatment, cyanamide 100 mg/kg soil
[11] = 19 d after treatment, cyanamide 150 mg/kg soil
[12] = 19 d after treatment, cyanamide 200 mg/kg soil
[13] = 19 d after treatment, cyanamide 250 mg/kg soil
[14] = 26 d after treatment, cyanamide 50 mg/kg soil
[15] = 26 d after treatment, cyanamide 100 mg/kg soil
[16] = 26 d after treatment, cyanamide 150 mg/kg soil
[17] = 26 d after treatment, cyanamide 200 mg/kg soil
[18] = 26 d after treatment, cyanamide 250 mg/kg soil
[19] = 9 d after treatment, cyanamide 50 mg/kg soil
[20] = 9 d after treatment, cyanamide 100 mg/kg soil
[21] = 9 d after treatment, cyanamide 150 mg/kg soil
[22] = 9 d after treatment, cyanamide 200 mg/kg soil
[23] = 9 d after treatment, cyanamide 250 mg/kg soil

SMILES: N#CN [Cyanamide, hydrogen cyanamide]
- Weeds Per Pot: Yellow Nutsedge [1, 4]: 0.9
- Weeds Per Pot: Yellow Nutsedge [1, 5]: 0.4
- Weeds Per Pot: Yellow Nutsedge [1, 6]: 0.1
- Weeds Per Pot: Yellow Nutsedge [1, 7]: 0
- Weeds Per Pot: Yellow Nutsedge [1, 8]: 0
- Weeds Per Pot: Yellow Nutsedge [1, 9]: 2.4
- Weeds Per Pot: Yellow Nutsedge [1, 10]: 0.6
- Weeds Per Pot: Yellow Nutsedge [1, 11]: 0.6
- Weeds Per Pot: Yellow Nutsedge [1, 12]: 0
- Weeds Per Pot: Yellow Nutsedge [1, 13]: 0
- Weeds Per Pot: Yellow Nutsedge [1, 14]: 2.9
- Weeds Per Pot: Yellow Nutsedge [1, 15]: 1.7
- Weeds Per Pot: Yellow Nutsedge [1, 16]: 1.0
- Weeds Per Pot: Yellow Nutsedge [1, 17]: 0
- Weeds Per Pot: Yellow Nutsedge [1, 18]: 0
- Weeds Per Pot (combined weed species) [2, 19]: 15.0
- Weeds Per Pot (combined weed species) [2, 20]: 1.6
- Weeds Per Pot (combined weed species) [2, 21]: 0.2
- Weeds Per Pot (combined weed species) [2, 22]: 0
- Weeds Per Pot (combined weed species) [2, 23]: 0
- Weeds Per Pot (combined weed species) [2, 4]: 14.4
- Weeds Per Pot (combined weed species) [2, 5]: 14.0
- Weeds Per Pot (combined weed species) [2, 6]: 0.9
- Weeds Per Pot (combined weed species) [2, 7]: 0
- Weeds Per Pot (combined weed species) [2, 8]: 0
- Weeds Per Pot (combined weed species) [2, 9]: 11.2
- Weeds Per Pot (combined weed species) [2, 10]: 4.8
- Weeds Per Pot (combined weed species) [2, 11]: 1.6
- Weeds Per Pot (combined weed species) [2, 12]: 0.3
- Weeds Per Pot (combined weed species) [2, 13]: 0
- Weeds Per Pot (combined weed species) [2, 14]: 21.5
- Weeds Per Pot (combined weed species) [2, 15]: 10.0
- Weeds Per Pot (combined weed species) [2, 16]: 3.0
- Weeds Per Pot (combined weed species) [2, 17]: 0.8
- Weeds Per Pot (combined weed species) [2, 18]: 0.8
- Weeds Per Pot: Crabgrass [3, 19]: 4.3
- Weeds Per Pot: Crabgrass [3, 20]: 1.6
- Weeds Per Pot: Crabgrass [3, 21]: 0
- Weeds Per Pot: Crabgrass [3, 22]: 0
- Weeds Per Pot: Crabgrass [3, 23]: 0
- Weeds Per Pot: Crabgrass [3, 4]: 7.4
- Weeds Per Pot: Crabgrass [3, 5]: 2.9
- Weeds Per Pot: Crabgrass [3, 6]: 0.4
- Weeds Per Pot: Crabgrass [3, 7]: 0
- Weeds Per Pot: Crabgrass [3, 8]: 0
- Weeds Per Pot: Crabgrass [3, 9]: 7.3
- Weeds Per Pot: Crabgrass [3, 10]: 3.4
- Weeds Per Pot: Crabgrass [3, 11]: 0.6
- Weeds Per Pot: Crabgrass [3, 12]: 0
- Weeds Per Pot: Crabgrass [3, 13]: 0
- Weeds Per Pot: Crabgrass [3, 14]: 9.6
- Weeds Per Pot: Crabgrass [3, 15]: 5.6
- Weeds Per Pot: Crabgrass [3, 16]: 1.4
- Weeds Per Pot: Crabgrass [3, 17]: 0
- Weeds Per Pot: Crabgrass [3, 18]: 0
